Reference: BindingDB's records for doi:10.1016/j.bmcl.2006.03.030 (Gsk, 2006)

Target: Transient receptor potential cation channel subfamily V member 1 (Homo sapiens, UniProt Q8NER1)
Assay: FLIPR (Fluorescence Imaging Plate Reader)-Based Ca2+ Assay
Details: pH 7.2; 25 °C
Method: One day before the assay was performed, human TRPV1 expressed in 1321N1 astrocytoma cells were plated onto 96-well assay plates and grown until 2.5 h before the assay, and the cells were loaded with the Ca2+ reporter dye Fluo3-AM for 2 h at room temperature. After this, the cells were washed, and continuously being incubated for 30 min with medium containing test compounds at a range of different concentrations. The plates were then placed into a FLIPR to monitor fluorescence (excitation @ 488 nm and emission @540 nm) before and after the addition of capsaicin, antagonist potency was determined versus an EC80 concentration of capsaicin that was determined empirically on the day of the experiment.

Transient receptor potential cation channel subfamily V member 1, sequence (Q8NER1 whole entry): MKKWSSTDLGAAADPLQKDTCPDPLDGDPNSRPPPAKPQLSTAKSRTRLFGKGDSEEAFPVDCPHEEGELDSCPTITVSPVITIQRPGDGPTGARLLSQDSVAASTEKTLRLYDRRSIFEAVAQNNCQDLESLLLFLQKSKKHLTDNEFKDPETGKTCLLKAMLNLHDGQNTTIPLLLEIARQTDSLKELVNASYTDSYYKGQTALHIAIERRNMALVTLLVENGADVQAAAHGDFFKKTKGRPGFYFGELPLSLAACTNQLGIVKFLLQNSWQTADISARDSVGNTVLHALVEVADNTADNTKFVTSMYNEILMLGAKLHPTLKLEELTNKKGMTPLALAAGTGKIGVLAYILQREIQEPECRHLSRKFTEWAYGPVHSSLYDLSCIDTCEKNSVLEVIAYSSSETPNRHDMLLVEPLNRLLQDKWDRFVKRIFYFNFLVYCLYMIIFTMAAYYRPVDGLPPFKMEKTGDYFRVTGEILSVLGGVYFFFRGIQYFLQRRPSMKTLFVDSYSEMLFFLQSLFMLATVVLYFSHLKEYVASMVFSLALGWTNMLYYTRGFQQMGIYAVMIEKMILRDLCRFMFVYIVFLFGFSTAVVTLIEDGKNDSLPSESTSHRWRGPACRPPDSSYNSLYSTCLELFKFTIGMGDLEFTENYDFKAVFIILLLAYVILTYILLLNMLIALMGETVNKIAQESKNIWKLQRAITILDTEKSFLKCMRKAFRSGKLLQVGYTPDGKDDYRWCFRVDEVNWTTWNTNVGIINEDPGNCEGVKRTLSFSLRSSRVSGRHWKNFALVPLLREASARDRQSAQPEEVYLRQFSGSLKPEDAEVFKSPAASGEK

Row | SMILES | EC50 [µM]
1 | O=C(NCCN1CCc2ccccc21)Nc1ccccc1Br [1-(2-bromophenyl)-3-[2-(2,3-dihydro-1H-indol-1-yl)ethyl]urea] | 0.158
2 | O=C(NCCN1CCc2c(F)cccc21)Nc1ccccc1Br [1-(2-bromophenyl)-3-[2-(4-fluoro-2,3-dihydro-1H-indol-1-yl)ethyl]urea] | 0.04
3 | Cc1cccc2c1CCN2CCNC(=O)Nc1ccccc1Br [1-(2-bromophenyl)-3-[2-(4-methyl-2,3-dihydro-1H-indol-1-yl)ethyl]urea] | 0.04
4 | O=C(Nc1ccccc1Br)N[C@@H]1CCN(c2ccc(Br)cn2)C1 [1-(2-bromophenyl)-3-[(3R)-1-(5-bromopyridin-2-yl)pyrrolidin-3-yl]urea] | 0.063
5 | O=C(Nc1ccccc1Br)N[C@@H]1CCN(c2ccc(Cl)cn2)C1 [1-(2-bromophenyl)-3-[(3R)-1-(5-chloropyridin-2-yl)pyrrolidin-3-yl]urea] | 0.05
6 | O=C(Nc1ccccc1Br)N[C@@H]1CCN(c2ccc(C(F)(F)F)cn2)C1 [1-(2-bromophenyl)-3-[(3R)-1-[5-(trifluoromethyl)pyridin-2-yl]pyrrolidin-3-yl]urea] | 0.032
7 | O=C(Nc1ccccc1Br)N[C@@H]1CCN(c2cccc(C(F)(F)F)n2)C1 [1-(2-bromophenyl)-3-[(3R)-1-[6-(trifluoromethyl)pyridin-2-yl]pyrrolidin-3-yl]urea] | 0.063
8 | Cc1cccc(N2CC[C@H](NC(=O)Nc3ccccc3Br)C2)c1 [1-(2-bromophenyl)-3-[(3S)-1-(3-methylphenyl)pyrrolidin-3-yl]urea] | > 0.158
9 | Cc1ccc2c(c1)CCCN2CCNC(=O)Nc1ccccc1Br [3-(2-bromophenyl)-1-[2-(6-methyl-1,2,3,4-tetrahydroquinolin-1-yl)ethyl]urea] | 0.04

Other lines, results leading:

Row | EC50 [µM] | SMILES
10 | 0.079 | O=C(NCCN1CCc2cc(F)ccc21)Nc1ccccc1Br [1-(2-bromophenyl)-3-[2-(5-fluoro-2,3-dihydro-1H-indol-1-yl)ethyl]urea]
11 | 0.05 | Cc1ccc2c(c1)CCN2CCNC(=O)Nc1ccccc1Br [1-(2-bromophenyl)-3-[2-(5-methyl-2,3-dihydro-1H-indol-1-yl)ethyl]urea]
12 | 0.008 | O=C(Nc1ccccc1Br)N[C@@H]1CCN(c2ccc(F)c(F)c2)C1 [1-(2-bromophenyl)-3-[(3R)-1-(3,4-difluorophenyl)pyrrolidin-3-yl]urea]
13 | 0.005 | Cc1ccc(N2CC[C@@H](NC(=O)Nc3ccccc3Br)C2)cc1F [1-(2-bromophenyl)-3-[(3R)-1-(3-fluoro-4-methylphenyl)pyrrolidin-3-yl]urea]
14 | 0.016 | O=C(Nc1ccccc1Br)N[C@@H]1CCN(c2cccc(F)c2)C1 [1-(2-bromophenyl)-3-[(3R)-1-(3-fluorophenyl)pyrrolidin-3-yl]urea]
15 | 0.02 | Cc1cccc(N2CC[C@@H](NC(=O)Nc3ccccc3Br)C2)c1 [1-(2-bromophenyl)-3-[(3R)-1-(3-methylphenyl)pyrrolidin-3-yl]urea]
16 | 0.2 | N#Cc1ccc(N2CC[C@@H](NC(=O)Nc3ccccc3Br)C2)nc1 [1-(2-bromophenyl)-3-[(3R)-1-(5-cyanopyridin-2-yl)pyrrolidin-3-yl]urea]
17 | > 0.2 | Cc1ccc(N2CC[C@@H](NC(=O)Nc3ccccc3Br)C2)nc1 [1-(2-bromophenyl)-3-[(3R)-1-(5-methylpyridin-2-yl)pyrrolidin-3-yl]urea]
18 | > 0.251 | O=C(Nc1ccccc1Br)N[C@@H]1CCN(c2ccccn2)C1 [1-(2-bromophenyl)-3-[(3R)-1-(pyridin-2-yl)pyrrolidin-3-yl]urea]
19 | 0.079 | O=C(Nc1ccccc1Br)N[C@@H]1CCN(c2ncccc2C(F)(F)F)C1 [1-(2-bromophenyl)-3-[(3R)-1-[3-(trifluoromethyl)pyridin-2-yl]pyrrolidin-3-yl]urea]
20 | 0.126 | O=C(Nc1ccccc1Br)N[C@@H]1CCN(c2cc(C(F)(F)F)ccn2)C1 [1-(2-bromophenyl)-3-[(3R)-1-[4-(trifluoromethyl)pyridin-2-yl]pyrrolidin-3-yl]urea]
